Reference: publication PMC5750214 (Nature Communications, 2018)
Numbering of substitutions follows the chain as printed.

Key:
[1] = biological target: T1, human AT1 receptor (angiotensin II type 1 receptor) (Homo sapiens, UniProt P30556); experiment: […]-Ang II competition binding, membranes
T1 construct: gene AGTR1; full-length receptor transfected in HEK293A cells; AT1 (human)-mCherry plasmid for NFAT assay
T1 sequence (P30556 1-359): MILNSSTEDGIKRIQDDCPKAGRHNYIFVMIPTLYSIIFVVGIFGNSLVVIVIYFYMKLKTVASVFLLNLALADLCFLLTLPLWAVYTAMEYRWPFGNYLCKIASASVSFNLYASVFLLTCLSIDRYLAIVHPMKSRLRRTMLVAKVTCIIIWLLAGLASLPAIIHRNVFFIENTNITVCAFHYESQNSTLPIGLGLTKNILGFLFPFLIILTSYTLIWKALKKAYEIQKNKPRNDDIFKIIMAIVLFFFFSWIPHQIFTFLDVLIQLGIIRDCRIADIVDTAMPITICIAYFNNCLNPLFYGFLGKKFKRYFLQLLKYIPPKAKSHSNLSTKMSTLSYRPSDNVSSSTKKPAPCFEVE

[2] = biological target: T2, human AT1 receptor (angiotensin II type 1 receptor) (Homo sapiens, UniProt P30556, R167A); experiment: […]-Ang II competition binding, membranes
T2 construct: gene AGTR1; full-length receptor transfected in HEK293A cells; AT1 (human)-mCherry plasmid for NFAT assay
T2 sequence (P30556 1-359 R167A): T1 sequence (P30556 1-359) with R167A

[3] = biological target: T1, human AT1 receptor (angiotensin II type 1 receptor); experiment: Ca2+ flux, Fluo-3-AM, HEK293A cells; type: cell-based
[4] = biological target: T3, human AT1 receptor (angiotensin II type 1 receptor) (Homo sapiens, UniProt P30556, C289S); experiment: […]-Ang II competition binding, membranes
T3 construct: gene AGTR1; full-length receptor transfected in HEK293A cells; AT1 (human)-mCherry plasmid for NFAT assay
T3 sequence (P30556 1-359 C289S): T1 sequence (P30556 1-359) with C289S

Ki [1]: 10.7 µM
Ki [2]: 92 µM
EC50 [3]: 81.3 µM
Ki [4]: 159 µM
SMILES: NC(CCS)C(=O)O (racemic) [Hcy]
